Toxic doses and inconclusive results are not listed.
System: P388 leukemia ip, CD2F1 mice, survival T/C
Experiment: NCI In Vivo Anticancer Drug Screen. Data for tumor model P388 Leukemia (intraperitoneal) in CD2F1 (CDF1) mice
Conditions: endpoint: median survival time, higher = longer survival
Procedure, shortened: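 Mice carrying the transplanted tumor received test compound or vehicle. Survival was recorded in each group, and the value is the treated-group measurement divided by that of the vehicle-treated control group.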

[1] = dose: 50.0 mg/kg/injection, schedule: Q01DX009 (ip), vehicle: Klucel (hydroxypropylcellulose) (HPC)
[2] = dose: 100.0 mg/kg/injection, schedule: Q01DX009 (ip), vehicle: Klucel (hydroxypropylcellulose) (HPC)
[3] = dose: 200.0 mg/kg/injection, schedule: Q01DX009 (ip), vehicle: Klucel (hydroxypropylcellulose) (HPC)

For `CC(C)=CCc1cc(O)c(C)cc1O`, the T/C (dose: 12.5 mg/kg/injection, schedule: Q01DX009 (ip), vehicle: distilled water + Tween-80 + alcohol) was 99 % of control and the T/C (dose: 25.0 mg/kg/injection, schedule: Q01DX009 (ip), vehicle: distilled water + Tween-80 + alcohol) was 91 % of control.
With `Cc1ccc(-c2c(Br)c(OC(=O)CO[C@@H]3C[C@H](C)CC[C@H]3C(C)C)c(-c3ccc(C)cc3C)c(Br)c2OC(=O)CO[C@H]2C[C@@H](C)CC[C@@H]2C(C)C)c(C)c1` the T/C (dose: 50.0 mg/kg/injection, schedule: Q01DX005 (ip), vehicle: saline with Tween-80) was 95 % of control, the T/C (dose: 100.0 mg/kg/injection, schedule: Q01DX005 (ip), vehicle: saline with Tween-80) was 88 % of control and the T/C (dose: 200.0 mg/kg/injection, schedule: Q01DX005 (ip), vehicle: saline with Tween-80) was 88 % of control.
`CC1OC(=O)C(C2OC2C)=CC1O` (stereo unspecified) was tested, and the T/C (dose: 50.0 mg/kg/injection, schedule: Q01DX005 (ip), vehicle: saline) was 97 % of control, the T/C (dose: 100.0 mg/kg/injection, schedule: Q01DX005 (ip), vehicle: saline) was 105 % of control and the T/C (dose: 200.0 mg/kg/injection, schedule: Q01DX005 (ip), vehicle: saline) was 105 % of control.
For `c1ccc(N2OCC3c4ccccc4-c4ccccc4C32)cc1` (stereo unspecified), the T/C (dose: 50.0 mg/kg/injection, schedule: Q04DX002 (ip), vehicle: suspension in saline) was 100 % of control, the T/C (dose: 100.0 mg/kg/injection, schedule: Q04DX002 (ip), vehicle: suspension in saline) was 104 % of control and the T/C (dose: 200.0 mg/kg/injection, schedule: Q04DX002 (ip), vehicle: suspension in saline) was 97 % of control.
In the case of `Clc1ccc(N=Cc2ccc(C=Nc3ccc(Cl)c(Cl)c3)cc2)cc1Cl`, the T/C (dose: 25.0 mg/kg/injection, schedule: Q01DX009 (ip), vehicle: saline with Tween-80) is reported as 103 % of control, the T/C (dose: 50.0 mg/kg/injection, schedule: Q01DX009 (ip), vehicle: saline with Tween-80) is reported as 90 % of control and the T/C (dose: 100.0 mg/kg/injection, schedule: Q01DX009 (ip), vehicle: saline with Tween-80) is reported as 88 % of control. The T/C (dose: 200.0 mg/kg/injection, schedule: Q01DX009 (ip), vehicle: saline with Tween-80) was 94 % of control.
For `CSc1cccc(NC(=O)OCCOc2ccc(Cl)c(C)c2)c1`, the T/C [1] was 92 % of control, the T/C [2] was 97 % of control and the T/C [3] was 92 % of control.
In the case of `O=S1(=O)N=C(Sc2nc3ccccc3o2)c2ccccc21`, the T/C (dose: 100.0 mg/kg/injection, schedule: Q04DX002 (ip), vehicle: saline with Tween-80) is reported as 102 % of control, the T/C (dose: 200.0 mg/kg/injection, schedule: Q04DX002 (ip), vehicle: saline with Tween-80) is reported as 107 % of control and the T/C (dose: 400.0 mg/kg/injection, schedule: Q04DX002 (ip), vehicle: saline with Tween-80) is reported as 115 % of control.
With `Cc1cc(Oc2ccc(Cl)cc2NC(=O)Nc2cccc(C(F)(F)F)c2)cc(S(=O)(=O)O)c1Cl` the T/C (dose: 100.0 mg/kg/injection, schedule: Q01DX001 (ip), vehicle: saline with Tween-80) was 100 % of control.
`Cc1cc(NCc2ccccc2)c(C)c2c1C=NCC2` was tested, and the T/C (dose: 12.5 mg/kg/injection, schedule: Q01DX009 (ip), vehicle: distilled water + Tween-80) was 97 % of control, the T/C (dose: 25.0 mg/kg/injection, schedule: Q01DX009 (ip), vehicle: distilled water + Tween-80) was 97 % of control and the T/C (dose: 50.0 mg/kg/injection, schedule: Q01DX009 (ip), vehicle: distilled water + Tween-80) was 106 % of control. The T/C (dose: 100.0 mg/kg/injection, schedule: Q01DX009 (ip), vehicle: distilled water + Tween-80) was 92 % of control and the T/C (dose: 200.0 mg/kg/injection, schedule: Q01DX009 (ip), vehicle: distilled water + Tween-80) was 87 % of control.
With `CCCCCCCCCCCCCCCCSC1=CC(=O)C(OC)=C(OC)C1=O` the T/C (dose: 2.0 mg/kg/injection, schedule: Q01DX009 (ip), vehicle: Klucel (hydroxypropylcellulose) (HPC)) was 97 % of control, the T/C (dose: 8.0 mg/kg/injection, schedule: Q01DX009 (ip), vehicle: Klucel (hydroxypropylcellulose) (HPC)) was 98 % of control and the T/C (dose: 16.0 mg/kg/injection, schedule: Q01DX009 (ip), vehicle: Klucel (hydroxypropylcellulose) (HPC)) was 100 % of control. The T/C (dose: 32.0 mg/kg/injection, schedule: Q01DX009 (ip), vehicle: Klucel (hydroxypropylcellulose) (HPC)) was 105 % of control.
In the case of `Cc1ccc(C(=O)NNC(=O)Nc2cccc(Cl)c2C)cc1`, the T/C [1] is reported as 92 % of control, the T/C [2] is reported as 89 % of control and the T/C [3] is reported as 93 % of control.
With `CCOC1OCN(C)CC1(C)C` (stereo unspecified) the T/C (dose: 50.0 mg/kg/injection, schedule: Q04DX003 (ip), vehicle: saline) was 109 % of control, the T/C (dose: 100.0 mg/kg/injection, schedule: Q01DX009 (ip), vehicle: saline) was 150 % of control and the T/C (dose: 100.0 mg/kg/injection, schedule: Q04DX003 (ip), vehicle: saline) was 113 % of control. For the same compound, the T/C (dose: 200.0 mg/kg/injection, schedule: Q04DX003 (ip), vehicle: saline) was 109 % of control.
In the case of `CN(C)CCC(=O)C(=Cc1ccccc1Cl)C(=O)CCN(C)C`, the T/C (dose: 60.0 mg/kg/injection, schedule: Q01DX005 (ip), vehicle: saline) is reported as 105 % of control, the T/C (dose: 120.0 mg/kg/injection, schedule: Q01DX005 (ip), vehicle: saline) is reported as 106 % of control and the T/C (dose: 240.0 mg/kg/injection, schedule: Q01DX005 (ip), vehicle: saline) is reported as 105 % of control.

Reference: PubChem BioAssay AID330 (DTP/NCI, 2004)
